Results as given in the supplement of paper PMC8617591.

Key:
[1] = system: Mycobacterium tuberculosis Erdman (autoluminescent); experiment: AUC25, normalised area under dose response up to IC25 (three-drug combination) (fraction (0-1)); higher = more potent at low dose
Experimental: (§1)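 DiaMOND equipotent three-drug combination dose responses (10 doses, 1.5- or 2-fold spacing, centred on IC90) against autoluminescent M. tuberculosis Erdman in 8 in vitro models. Read-out is OD600, or luminescence for the intracellular and dormancy models, normalised to untreated wells. Hill-fit Einf, AUC25 and GRinf are potency metrics; FIC50 and FIC90 are total Loewe fractional inhibitory concentrations as log2 (negative = synergy).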

[2] = system: Mycobacterium tuberculosis Erdman (autoluminescent); experiment: GRinf, maximum normalised growth rate inhibition (three-drug combination) (unitless (-1 to 1)); higher = less effect (negative = killing)
Experimental: as §1

[3] = system: Mycobacterium tuberculosis Erdman (autoluminescent); experiment: total FIC90 (Loewe) at 90% inhibition, three-drug combination (log2); higher = more antagonistic
Experimental: as §1

[4] = system: Mycobacterium tuberculosis Erdman (autoluminescent); experiment: total FIC50 (Loewe) at 50% inhibition, three-drug combination (log2); higher = more antagonistic
Experimental: as §1

[5] = system: Mycobacterium tuberculosis Erdman (autoluminescent); experiment: Einf, fitted maximum growth inhibition of three-drug combination (fraction); higher = stronger maximal inhibition
Experimental: as §1

CC(C)/N=c1\cc2n(-c3ccc(Cl)cc3)c3ccccc3nc-2cc1Nc1ccc(Cl)cc1 [clofazimine] + NC(=O)c1cnccn1 [pyrazinamide] + CO[C@H]1/C=C/O[C@@]2(C)Oc3c(C)c(O)c4c(O)c(c(/C=N/N5CCN(C6CCCC6)CC5)c(O)c4c3C2=O)NC(=O)/C(C)=C\C=C\[C@H](C)[C@H](O)[C@@H](C)[C@@H](O)[C@@H](C)[C@H](OC(C)=O)[C@@H]1C [rifapentine]
Conditions | AUC25, [1] | Einf, [5] | GRinf, [2] | total FIC50, [4] | total FIC90, [3]
in vitro model: acidic pH 5.7, time point: constant (~7 days, model-specific) | 0.0912 | 0.872 | -0.0882 | -0.248 | –
in vitro model: acidic pH 5.7, time point: terminal (~4-5 doublings, model-specific) | 0.0866 | 0.992 | -0.166 | -0.185 | -0.282
in vitro model: intracellular J774, time point: constant = terminal | – | 0.987 | -0.31 | – | -0.162

Conditions | AUC25, [1] | Einf, [5] | GRinf, [2] | total FIC50, [4] | total FIC90, [3]
in vitro model: butyrate, time point: constant (~7 days, model-specific) | 0.112 | 0.934 | -0.137 | 0.135 | 0.657
in vitro model: butyrate, time point: terminal (~4-5 doublings, model-specific) | 0.0906 | 0.969 | -0.0833 | 0.161 | 0.364
in vitro model: cholesterol 0.05 mM, time point: constant (~7 days, model-specific) | 0.142 | 0.621 | -0.201 | – | –
in vitro model: cholesterol 0.05 mM, time point: terminal (~4-5 doublings, model-specific) | 0.111 | 0.899 | -0.27 | 0.876 | –
in vitro model: cholesterol-high 0.2 mM, time point: constant (~7 days, model-specific) | 0.121 | 0.905 | -0.547 | 0.527 | –
in vitro model: cholesterol-high 0.2 mM, time point: terminal (~4-5 doublings, model-specific) | 0.0971 | 0.984 | -0.634 | 0.828 | 0.832
in vitro model: dormancy (butyrate + nitrate, low O2), time point: constant (~7 days, model-specific) | 0.0828 | 0.929 | 0.0852 | -0.285 | -1.22
in vitro model: dormancy (butyrate + nitrate, low O2), time point: terminal (~4-5 doublings, model-specific) | 0.0573 | 0.993 | -0.269 | -0.0992 | 0.0246
in vitro model: standard 7H9 glycerol, time point: constant = terminal | 0.115 | 0.936 | -0.0744 | -0.0271 | –
in vitro model: valerate, time point: constant (~7 days, model-specific) | 0.118 | 0.911 | -0.101 | 0.0622 | –
in vitro model: valerate, time point: terminal (~4-5 doublings, model-specific) | 0.0526 | 0.901 | 0.0624 | 0.391 | 1.33

CC(C)/N=c1\cc2n(-c3ccc(Cl)cc3)c3ccccc3nc-2cc1Nc1ccc(Cl)cc1 [clofazimine] + O=[N+]([O-])c1cn2c(n1)OC[C@@H](OCc1ccc(OC(F)(F)F)cc1)C2 [pretomanid] + CO[C@H]1/C=C/O[C@@]2(C)Oc3c(C)c(O)c4c(O)c(c(/C=N/N5CCN(C6CCCC6)CC5)c(O)c4c3C2=O)NC(=O)/C(C)=C\C=C\[C@H](C)[C@H](O)[C@@H](C)[C@@H](O)[C@@H](C)[C@H](OC(C)=O)[C@@H]1C [rifapentine]
Conditions | AUC25, [1] | Einf, [5] | GRinf, [2] | total FIC50, [4] | total FIC90, [3]
in vitro model: acidic pH 5.7, time point: constant (~7 days, model-specific) | 0.103 | 0.899 | -0.186 | 0.105 | –
in vitro model: acidic pH 5.7, time point: terminal (~4-5 doublings, model-specific) | 0.0882 | 0.993 | -0.236 | 0.264 | 0.423
in vitro model: intracellular J774, time point: constant = terminal | – | 0.989 | -0.655 | – | -0.198

Conditions | AUC25, [1] | Einf, [5] | GRinf, [2] | total FIC50, [4] | total FIC90, [3]
in vitro model: butyrate, time point: constant (~7 days, model-specific) | 0.108 | 0.944 | -0.17 | 0.542 | 0.896
in vitro model: butyrate, time point: terminal (~4-5 doublings, model-specific) | 0.0902 | 0.978 | -0.146 | 0.502 | 0.795
in vitro model: cholesterol 0.05 mM, time point: constant (~7 days, model-specific) | 0.125 | 0.719 | -0.154 | 1.34 | –
in vitro model: cholesterol 0.05 mM, time point: terminal (~4-5 doublings, model-specific) | 0.1 | 0.913 | -0.114 | 1.34 | 1.38
in vitro model: cholesterol-high 0.2 mM, time point: constant (~7 days, model-specific) | 0.101 | 0.93 | -0.434 | 1.29 | 2.04
in vitro model: cholesterol-high 0.2 mM, time point: terminal (~4-5 doublings, model-specific) | 0.104 | 1 | -0.886 | 1.49 | 1.76
in vitro model: dormancy (butyrate + nitrate, low O2), time point: constant (~7 days, model-specific) | 0.0611 | 0.948 | -0.0911 | 0.0191 | -1.71
in vitro model: dormancy (butyrate + nitrate, low O2), time point: terminal (~4-5 doublings, model-specific) | 0.0501 | 0.997 | -0.374 | -0.0775 | -0.279
in vitro model: standard 7H9 glycerol, time point: constant = terminal | 0.12 | 0.954 | -0.0887 | -0.289 | 1.7
in vitro model: valerate, time point: constant (~7 days, model-specific) | 0.155 | 0.893 | -0.158 | 1.22 | –
in vitro model: valerate, time point: terminal (~4-5 doublings, model-specific) | 0.106 | 0.953 | 0.0119 | 0.552 | 1.7

CC[C@@H](CO)NCCN[C@@H](CC)CO [ethambutol] + NNC(=O)c1ccncc1 [isoniazid] + CO[C@H]1/C=C/O[C@@]2(C)Oc3c(C)c(O)c4c(O)c(c(/C=N/N5CCN(C)CC5)c(O)c4c3C2=O)NC(=O)/C(C)=C\C=C\[C@H](C)[C@H](O)[C@@H](C)[C@@H](O)[C@@H](C)[C@H](OC(C)=O)[C@@H]1C [rifampicin]
Conditions | AUC25, [1] | Einf, [5] | GRinf, [2] | total FIC50, [4] | total FIC90, [3]
in vitro model: acidic pH 5.7, time point: constant (~7 days, model-specific) | 0.104 | 0.899 | -0.0987 | -0.427 | –
in vitro model: acidic pH 5.7, time point: terminal (~4-5 doublings, model-specific) | 0.0385 | 0.97 | -0.0837 | 0.126 | -0.549
in vitro model: intracellular J774, time point: constant = terminal | – | 0.967 | -0.321 | – | -2.19

Conditions | AUC25, [1] | Einf, [5] | GRinf, [2] | total FIC50, [4] | total FIC90, [3]
in vitro model: butyrate, time point: constant (~7 days, model-specific) | 0.0804 | 0.936 | -0.0122 | 0.2 | –
in vitro model: butyrate, time point: terminal (~4-5 doublings, model-specific) | 0.0612 | 0.972 | -0.0091 | 0.238 | -0.403
in vitro model: cholesterol 0.05 mM, time point: constant (~7 days, model-specific) | 0.0636 | 0.617 | 0.000894 | -0.456 | –
in vitro model: cholesterol 0.05 mM, time point: terminal (~4-5 doublings, model-specific) | 0.0895 | 0.867 | 0.194 | 0.41 | –
in vitro model: cholesterol-high 0.2 mM, time point: constant (~7 days, model-specific) | 0.0326 | 0.915 | -0.23 | 0.757 | –
in vitro model: cholesterol-high 0.2 mM, time point: terminal (~4-5 doublings, model-specific) | 0.0525 | 0.997 | -0.778 | 0.99 | 0.871
in vitro model: dormancy (butyrate + nitrate, low O2), time point: constant (~7 days, model-specific) | 0.0838 | 0.872 | 0.364 | -0.262 | –
in vitro model: dormancy (butyrate + nitrate, low O2), time point: terminal (~4-5 doublings, model-specific) | 0.079 | 0.992 | -0.165 | 0.173 | -0.24
in vitro model: standard 7H9 glycerol, time point: constant = terminal | 0.0526 | 0.9 | 0.116 | 0.199 | –
in vitro model: valerate, time point: constant (~7 days, model-specific) | 0.0369 | 0.853 | 0.000652 | 0.253 | –
in vitro model: valerate, time point: terminal (~4-5 doublings, model-specific) | 0.0264 | 0.932 | 0.0672 | 0.302 | -0.619
